Data taken from the NIST ThermoML archive (doi:10.1016/j.fluid.2007.07.066).

Experiment: wn = mass fraction of the nth substance listed
Details: 101 kPa, Liquid; for speed of sound: Sing-around technique in a fixed-path interferometer

CCCO [propan-1-ol] + O
Details | mass density, 283.15 K [kg/m3] | mass density, 288.15 K [kg/m3] | mass density, 293.15 K [kg/m3] | mass density, 298.15 K [kg/m3] | mass density, 303.15 K [kg/m3] | speed of sound, 283.15 K [m/s] | speed of sound, 288.15 K [m/s] | speed of sound, 293.15 K [m/s] | speed of sound, 298.15 K [m/s] | speed of sound, 303.15 K [m/s]
w1 = 0.05 | 992.444 | 991.727 | 990.715 | 989.431 | 987.905 | 1501.2 | 1514.5 | 1526.2 | 1536.2 | 1544.7
w1 = 0.1 | 987.274 | 986.285 | 985.011 | 983.475 | 981.701 | 1547.4 | 1555.6 | 1562.4 | 1568 | 1572.2
w1 = 0.15 | 983.045 | 981.663 | 980.011 | 978.117 | 976.004 | 1584 | 1586.5 | 1588.1 | 1588.6 | 1588.1
